Experimental data reported in patent US20230286948A1 (HUYABIO International, LLC, priority 2022, published 2023).

Assays:
hERG = hERG (Homo sapiens (Human), UniProt Q12809); assay: hERG radioligand binding assay; details: for inhibition at 1 h, 10000 nM: human, hERG membrane stocks (membrane preparation), probe 3H radio ligand (not named), max dose 10,000 nM, read-out: % Inh at Max dose
Method: Procedure: Compounds were prepared and diluted with DMSO to make 0.2 mM and 0.02 mM solution. Reference compound was diluted with DMSO to make 8-point 4-fold serial dilution, starting at 0.2 mM. One μl of compounds/high control/low control was transferred to the assay plate according to the plate map. Next, and by following the plate map, 100 μl of membrane stocks was dispensed into the plate followed by adding 100 μl of radio ligand. Plates were then sealed and were incubated at RT for 1 hours. In the meantime, the Unifilter-96 GF/C filter plates were soaked with 50 μL of 0.5% BSA per well for at least 0.5 hour at room temperature. When binding assays were completed, the reaction mixture was filtered through GF/C plates using Perkin Elmer Filtermate Harvester, and then each plate was washed for 4 times with cold wash buffer. Next, the filter plates were dried for 1 hr at 50 degrees and the bottom of the filter plate wells were sealed using Perkin Elmer Unifilter-96 backing seal tape. Next, 50 μl of Perkin Elmer Microscint 20 cocktail was added. The top of the filter plate was sealed with Perkin Elmer TopSeal-A sealing film. Using Perkin Elmer MicroBeta2 Reader count 3H trapped on filter. Finally, the data was analyzed with GraphPad Prism 5. The “Inhibition [% Control]” was calculated using the equation: % Inh=(1-Background subtracted Assay value/Background subtracted HC value)*100.

MV-411 cells = assay: Anti-proliferative activity against MV-411 leukemia cells (CellTiterGlo viability, 72 h); format: cell-based; details: Homo sapiens, MV4-11, 72 h, MV-411 human acute monocytic leukemia cells, a second value in parentheses is a further determination
Method: Procedure: MV-411 cells were seeded into 384 well plates at 2000 cells/well density in 50 μL total volume, according to plate map and were allowed to naturally sediment by waiting about 30 min on a Clean Bench. Next, plated cells were centrifuged for 1 min at 1000 rpm and the excess cells were transferred into the flasks for further culture. Cells in the assay plates were incubated (at least 4 hrs.) at 37° C., 5% CO2 followed by adding the compounds as the plate map indicated. The tests were performed in duplicates with treatment of compounds at 10 pts 3-fold titration in 384 well plates. Taxol was used as positive control while DMSO as negative control. To rule out edge effect, the wells on the edge were not seeded and therefore one 384 well plate holds 13 compounds. Cells viability was measured 72h after incubation with compounds using CellTiterGlo (promega) viability assay according to manufacturer's instruction to check the ATP production in each well.
Experiments on anti-proliferative activity against leukemia cells were conducted with some of the compounds of the invention.

[1] = target: MLL1-WDR5 protein-protein interaction (Homo sapiens (Human), UniProt P61964); assay: WDR5 TR-FRET assay (MLL1-WDR5 PPI inhibition); format: binding; details: 5 nM WDR5 protein, 10 nM peptide, read-out: IC50 (nM), MLL1-WDR5 PPI inhibitory activity
Method: WDR5 TR-FRET Assay Procedure: Stock compounds were transferred to the assay plate by Echo Liquid Handler. […] Stock compounds were incubated with WDR5 protein for 30 min at room temperature. Plates were covered, protected from light and incubated for 60 min at room temperature, after adding the peptide and Tb-Ab. EnVision Multimode Plate Reader (PerkinElmer) was used for the TR-FRET assay with excitation wavelength at 340 nm and emission wavelength at 495 and 520 nm. The ratio of the 520/495 wavelengths were used to assess the degree of the FRET signal. IC50 was calculated by fitting the inhibition data using XLfit software to sigmoidal dose-response model.

[2] = Solubility remark in Table 4; format: physicochemical; details: remark beside the GI50 value

Chain of hERG (Q12809 whole entry): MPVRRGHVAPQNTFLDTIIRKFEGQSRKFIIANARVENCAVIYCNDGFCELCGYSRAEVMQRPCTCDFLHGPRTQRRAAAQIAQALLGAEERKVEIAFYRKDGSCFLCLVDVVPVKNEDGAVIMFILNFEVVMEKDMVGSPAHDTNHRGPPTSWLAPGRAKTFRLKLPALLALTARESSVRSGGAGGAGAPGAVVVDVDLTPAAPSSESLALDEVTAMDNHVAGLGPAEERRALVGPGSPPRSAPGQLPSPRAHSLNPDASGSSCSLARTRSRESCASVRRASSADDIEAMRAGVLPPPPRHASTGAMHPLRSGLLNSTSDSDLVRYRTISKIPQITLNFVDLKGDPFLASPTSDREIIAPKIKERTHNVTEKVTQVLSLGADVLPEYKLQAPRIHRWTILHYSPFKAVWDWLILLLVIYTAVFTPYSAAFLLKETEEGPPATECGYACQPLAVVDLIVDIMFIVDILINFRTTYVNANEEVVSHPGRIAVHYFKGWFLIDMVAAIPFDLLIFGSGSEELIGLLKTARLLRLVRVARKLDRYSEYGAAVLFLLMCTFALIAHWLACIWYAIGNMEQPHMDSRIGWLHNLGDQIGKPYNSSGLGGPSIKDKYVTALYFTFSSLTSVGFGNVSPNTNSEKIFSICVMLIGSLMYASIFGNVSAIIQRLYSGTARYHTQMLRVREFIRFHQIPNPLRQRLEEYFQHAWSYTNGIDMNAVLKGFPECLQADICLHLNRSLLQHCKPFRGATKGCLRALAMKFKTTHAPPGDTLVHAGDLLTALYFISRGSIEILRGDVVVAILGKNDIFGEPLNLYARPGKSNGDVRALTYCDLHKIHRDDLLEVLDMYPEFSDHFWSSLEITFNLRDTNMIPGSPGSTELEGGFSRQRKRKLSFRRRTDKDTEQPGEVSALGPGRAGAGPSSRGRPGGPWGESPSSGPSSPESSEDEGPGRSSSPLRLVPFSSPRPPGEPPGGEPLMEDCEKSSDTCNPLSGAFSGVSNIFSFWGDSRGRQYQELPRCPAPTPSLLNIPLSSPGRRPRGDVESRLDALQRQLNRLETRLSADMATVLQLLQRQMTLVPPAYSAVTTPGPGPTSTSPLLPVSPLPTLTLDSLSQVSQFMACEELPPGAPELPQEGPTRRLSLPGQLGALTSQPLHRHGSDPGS

CN1CCN(c2ccc(-n3cc(C(=O)NCCCN4CCOCC4)nn3)cc2NC(=O)c2cnc(Cl)cc2C(F)(F)F)CC1 [Compound 3]
IC50 (hERG): > 10 µM
inhibition at 1 h, 10000 nM (hERG): 3.31%
GI50 (MV-411 cells): 0.298 µM

CN(CCOc1ccc(NS(C)(=O)=O)cc1)CCc1ccc(NS(C)(=O)=O)cc1 [Dofetilide]
inhibition at 1 h, 10000 nM (hERG): 99.9%

CN1CCN(c2cc(F)c(-n3cc(C(=O)NCCCN4CCOCC4)nn3)cc2NC(=O)c2cnc(Cl)cc2C(F)(F)F)CC1 [Compound 7]
IC50 (hERG): > 10 µM
inhibition at 1 h, 10000 nM (hERG): 11.8%
GI50 (MV-411 cells): 0.4 µM

C[C@@H]1CN(c2cc(F)c(-n3cc(C(=O)NCCCN4CCOCC4)nn3)cc2NC(=O)c2c[nH]c(=O)cc2C(F)(F)F)C[C@H](C)N1C [Example 6, N-(4-fluoro-5-(4-((3-morpholinopropyl)carbamoyl)-1H-1,2,3-triazol-1-yl)-2-((3S,5R)-3,4,5-trimethylpiperazin-1-yl)phenyl)-6-oxo-4-(trifluoromethyl)-1,6-dihydropyridine-3-carboxamide]
IC50 [1]: 7.23 nM

C[C@H]1CN(c2ccc(-n3cc(C(=O)NCCCN4CCOCC4)nn3)cc2NC(=O)c2cnc(Cl)cc2C(F)(F)F)CCN1C [Compound 9]
IC50 (hERG): > 10 µM
inhibition at 1 h, 10000 nM (hERG): 6.39%
GI50 (MV-411 cells): 0.241 µM

CN1CCN(c2ccc(-n3cc(C(=O)NCCCN4CCOCC4)nn3)cc2NC(=O)c2cnc(C(F)(F)F)cc2Cl)CC1 [Example 20, 4-chloro-N-(2-(4-methylpiperazin-1-yl)-5-(4-((3-morpholinopropyl)carbamoyl)-1H-1,2,3-triazol-1-yl)phenyl)-6-(trifluoromethyl)nicotinamide]
IC50 [1]: > 10000 nM

Cc1cc(C(F)(F)F)c(C(=O)Nc2cc(-n3cc(C(=O)NCCCN4CCOCC4)nn3)ccc2N2CCN(C)CC2)cn1 [Example 12, 6-methyl-N-(2-(4-methylpiperazin-1-yl)-5-(4-((3-morpholinopropyl)carbamoyl)-1H-1,2,3-triazol-1-yl)phenyl)-4-(trifluoromethyl)nicotinamide]
IC50 [1]: > 10000 nM

COc1ccc(CNc2ccc(C(=O)Nc3cc(-n4cc(C(=O)NCCCN5CCOCC5)nn4)ccc3N3CCN(C)CC3)c(C(F)(F)F)n2)cc1 [Example 42, 6-((4-methoxybenzyl)amino)-N-(2-(4-methylpiperazin-1-yl)-5-(4-((3-morpholinopropyl)carbamoyl)-1H-1,2,3-triazol-1-yl)phenyl)-2-(trifluoromethyl)nicotinamide]
IC50 [1]: > 10000 nM

COc1ccc(C(=O)Nc2cc(-n3cc(C(=O)NCCCN4CCOCC4)nn3)ccc2N2CCN(C)CC2)c(C(F)(F)F)n1 [Example 38, 6-methoxy-N-(2-(4-methylpiperazin-1-yl)-5-(4-((3-morpholinopropyl)carbamoyl)-1H-1,2,3-triazol-1-yl)phenyl)-2-(trifluoromethyl)nicotinamide]
IC50 [1]: > 10000 nM

Cc1c(Cl)ncc(C(=O)Nc2cc(-n3cc(C(=O)NCCCN4CCOCC4)nn3)c(F)cc2N2CCN(C)[C@H](C)C2)c1Cl [Compound 59]
GI50 (MV-411 cells): > 204 µM
solubility (remark) [2]: (poor solubility)

CN1CCN(c2ccc(-n3cc(C(=O)NCCCN4CCOCC4)nn3)cc2NC(=O)c2cnc(F)cc2C(F)(F)F)CC1 [Example 11, 6-fluoro-N-(2-(4-methylpiperazin-1-yl)-5-(4-((3-morpholinopropyl)carbamoyl)-1H-1,2,3-triazol-1-yl)phenyl)-4-(trifluoromethyl)nicotinamide]
IC50 [1]: 4230 nM

CN1CCN(c2ccc(-n3cc(C(=O)NCCCN4CCOCC4)nn3)cc2NC(=O)c2ncc(N)cn2)CC1 [HYBI-267, 5-amino-N-(2-(4-methylpiperazin-1-yl)-5-(4-((3-morpholinopropyl)carbamoyl)-1H-1,2,3-triazol-1-yl)phenyl)pyrimidine-2-carboxamide]
IC50 [1]: > 10000 nM

C[C@@H]1CN(c2cc(F)c(-n3cc(C(=O)NC4CCN(C)CC4)nn3)cc2NC(=O)c2cnc(C(F)(F)F)cc2Cl)C[C@H](C)N1C [Example 58, 4-chloro-N-(4-fluoro-5-(4-((1-methylpiperidin-4-yl)carbamoyl)-1H-1,2,3-triazol-1-yl)-2-((3S,5R)-3,4,5-trimethylpiperazin-1-yl)phenyl)-6-(trifluoromethyl)nicotinamide]
IC50 [1]: > 10000 nM

CCN(CC)C(=O)c1cn(-c2cc(NC(=O)c3cnc(F)cc3C(F)(F)F)c(N3C[C@@H](C)N(C)[C@@H](C)C3)cc2F)nn1 [Example 53, N-(5-(4-(diethylcarbamoyl)-1H-1,2,3-triazol-1-yl)-4-fluoro-2-((3S,5R)-3,4,5-trimethylpiperazin-1-yl)phenyl)-6-fluoro-4-(trifluoromethyl)nicotinamide]
IC50 [1]: 535 nM
